Laboratory results from US10106515B2, “1-(cyclopent-2-en-1-yl)-3-(2-hydroxy-3-(arylsulfonyl)phenyl)urea derivatives as CXCR2 inhibitors” (GLAXOSMITHKLINE INTELLECTUAL PROPERTY DEVELOPMENT LIMITED, priority 2014, dated 2018).
Structures can show the parent of a compound that is named as a salt. Where two headings read alike, the source gives them in different places.

Target: T1, recombinant human CXCR2 (Homo sapiens, UniProt P25025)
T1 construct: TEV protease site; Gal4-VP16 transcription factor
T1 sequence (P25025 1-360): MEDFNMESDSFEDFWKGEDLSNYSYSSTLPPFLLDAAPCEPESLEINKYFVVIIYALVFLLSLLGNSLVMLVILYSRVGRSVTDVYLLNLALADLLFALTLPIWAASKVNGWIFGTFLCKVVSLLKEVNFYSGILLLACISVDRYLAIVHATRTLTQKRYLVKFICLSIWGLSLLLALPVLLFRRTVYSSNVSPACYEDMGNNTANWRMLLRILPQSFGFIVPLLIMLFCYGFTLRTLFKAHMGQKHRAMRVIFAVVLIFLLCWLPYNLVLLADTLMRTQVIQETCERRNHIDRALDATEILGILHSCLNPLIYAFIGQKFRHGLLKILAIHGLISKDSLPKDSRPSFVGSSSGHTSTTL
Assay: CXCR2 Tango assay
Type: cell-based
Details: mean pIC50 of multiple test results, stimulated with 80 nM hCXCL1, reporter gene blue/green emission ratio
Description: The assay measures ligand-induced activation of the receptor CXCR2 in a stable cell line containing the recombinant human CXCR2 linked to a TEV protease site and a Gal4-VP16 transcription factor (Invitrogen). Ligand binding to the receptor results in the recruitment of arrestin proteins (tagged with protease) to the receptor and triggers the release of a tethered transcription factor. The transcription factor enters the nucleus and activates the transcription of the reporter gene. The ability of a compound to inhibit CXCR2 activation is indirectly assessed by measuring the reporter gene activity.
A vial of cryopreserved cells was removed from liquid nitrogen and rapidly thawed in a water bath at 37° C. with gentle agitation. The contents of the vial were transferred drop-wise into Thawing Medium in a sterile 15 ml conical tube and then centrifuged at 1000 rpm for 4-5 min. Then the cell pellets were resuspended in Assay Medium at a density of ˜200,000 cells/ml. All test compounds were dissolved in DMSO at a concentration of 10 mM and were prepared in 100% DMSO to provide 10 point dose response curves. A reference CXCR2 antagonist was added to wells in row 2, columns 1-5 & 7-11. Exemplified compounds 1-4, 7, 8-10, 13-22, 24-26, 28-30, 32, 33, 36, 37, 40, 42-44. 95-110, 115-118, 120, 121, 125, 126, 129-134, 137, 138, 140, 142, 147-149, 153-157, 159-162, 163-166, 168, 170, 172, 174-180 and 202 were tested using the CXCR2 antagonist sodium 3-chloro-6-(3-(2,3-dichlorophenyl)ureido)-2-sulfamoylphenolate as reference compound (Reference Compound 1) (published International patent application WO2002/079122). […] Test compounds were added to wells in row 2, columns 13-17 & 19-23 and rows 3-15, columns 1-5 & 7-11/13-17 & 19-23 (columns 6 and 18 as positive controls and un-stimulated controls respectively; columns 12 and 24 as cell-free control). Compounds in solution were added to the assay plate (Greiner 781090) using an Echo (Labcyte) concentration-response program (50 nl/well). The cell-free, un-stimulated and positive controls were loaded with 50 nl/well pure DMSO to ensure that the DMSO concentration was constant across the plate for all assays. Using Multi-drop Combi (Thermo) with standard cassette, 50 μl of Assay Medium was added to each well in the cell-free controls (columns 12 and 24); 50 μl of the cell suspension without hCXCL1 (a CXCR2 ligand) was added to each well in column 18 of the plate (˜10,000 cells per well); and 50 μl of the cell suspension with 80 nM hCXCL1 was added to the rest of wells of the plate (˜10,000 cells per well). The cells were incubated overnight at 37° C./5% CO2. 10 μl of 6× substrate mixture (LiveBLAzer™-FRET B/G substrate (CCF4-AM) Cat # K1096 from Invitrogen, Inc.) was added to each well using Multi-drop Combi (Thermo) with small-tube cassette and the plates incubated at room temperature for 2 h in the dark. The plate was finally read on EnVision using one excitation channel (409 nm) and two emission channels (460 nm and 530 nm).
The blue/green emission ratio (460 nm/530 nm) was calculated for each well, by dividing the background-subtracted Blue emission values by the background-subtracted Green emission values. The dose response curve was based on sigmoidal dose-response model. All ratio data was normalized based upon the maximum emission ratio of positive control (hCXCL1) and minimum emission ratio of negative control (DMSO) on each plate. The intrinsic activity (IA) of each compound would be the normalized percentage of its maximum response after curve fitting.
All exemplified compounds (except for Compounds 203 and 204) were tested in the CXCR2 Tango assay or a similar assay described above. The data mentioned below represents a mean pIC 50 value of multiple test results. It is understood that the data illustrated below may have reasonable variation depending on the specific conditions and procedures used by the person conducting the testing.

[1] = read-out: pIC50 (CXCR2 Tango assay) (converted)

| SMILES | IC50 [1] [nM] | IC50 (pIC50 (CXCR2 Tango assay)) [nM] |
| --- | --- | --- |
| CC1=CCC[C@H]1NC(=O)Nc1ccc(Cl)c(S(=O)(=O)C2CCN(C3CCC3)CC2)c1O [Compound 83, (R)-1-(4-chloro-3-((1-cyclobutylpiperidin-4-yl)sulfonyl)-2-hydroxyphenyl)-3-(2-methylcyclopent-2-en-1-yl)urea trifluoroacetic acid salt] |  | ≤ 1 |
| CC1=CCC[C@H]1NC(=O)Nc1ccc(Cl)c(S(=O)(=O)N2CC(F)C2)c1O [Compound 86, (R)-1-(4-chloro-3-((3-fluoroazetidin-1-yl)sulfonyl)-2-hydroxyphenyl)-3-(2-methylcyclopent-2-en-1-yl)urea trifluoroacetic acid salt] | ≤ 10 |  |
| CC1=CCC[C@H]1NC(=O)Nc1ccc(Cl)c(S(=O)(=O)N2CCC(O)CC2)c1O [Compound 89, (R)-1-(4-chloro-2-hydroxy-3-((4-hydroxypiperidin-1-yl)sulfonyl)phenyl)-3-(2-methylcyclopent-2-en-1-yl)urea] | ≤ 1 |  |
| CC1=CCCC1NC(=O)Nc1ccc(Cl)c(S(=O)(=O)[C@H]2C[C@@H](O)C2)c1O (stereo partly drawn) [Compound 95, 1-(4-chloro-2-hydroxy-3-((cis-3-hydroxycyclobutyl)sulfonyl)phenyl)-3-(2-methylcyclopent-2-en-1-yl)urea] | ≤ 1 |  |
| CC1=CCCC1NC(=O)Nc1ccc(Cl)c(S(=O)(=O)[C@H]2C[C@H](N3CCCC3)C2)c1O (stereo partly shown) [Compound 96, 1-(4-chloro-2-hydroxy-3-(((1r,3r)-3-(pyrrolidin-1-yl)cyclobutyl)sul-fonyl)phenyl)-3-(2-methylcyclopent-2-en-1-yl)urea, trifluoroacetic acid salt] | ≤ 10 |  |
| CC1=CCCC1NC(=O)Nc1ccc(Cl)c(S(=O)(=O)[C@H]2CC[C@H](N3CCC3)CC2)c1O (stereo partly shown) [Compound 97, 1-(3-(((1r,4r)-4-(azetidin-1-yl)cyclohexyl)sulfonyl)-4-chloro-2-hydroxyphenyl)-3-(2-methylcyclopent-2-en-1-yl)urea trifluoroacetic acid salt] | ≤ 10 |  |
| CC1=CCCC1NC(=O)Nc1ccc(Cl)c(S(=O)(=O)[C@H]2CC[C@H](N3CCCC3)CC2)c1O (stereo partly drawn) [Compound 98, 1-(4-chloro-2-hydroxy-3-(((1R,4R)-4-(pyrrolidin-1-yl)cyclohexyl)sulfonyl)phenyl)-3-(2-methylcyclopent-2-en-1-yl)urea, trifluoroacetic acid salt] | ≤ 1 |  |
| CC1=CCCC1NC(=O)Nc1ccc(Cl)c(S(=O)(=O)[C@H]2CCOC2)c1O (stereo partly drawn) [Compound 99, 1-(4-chloro-2-hydroxy-3-(((S)-tetrahydrofuran-3-yl)sulfonyl)phenyl)-3-(2-methylcyclopent-2-en-1-yl)urea] | ≤ 10 |  |
| CC1=CCCC1NC(=O)Nc1ccc(Cl)c(S(=O)(=O)C(C)(C)c2ccccn2)c1O (stereo not shown) [Compound 102, 1-(4-chloro-2-hydroxy-3-((2-(pyridin-2-yl)propan-2-yl)sulfonyl)phenyl)-3-(2-methylcyclopent-2-en-1-yl)urea, trifluoroacetic acid salt] | ≤ 10 |  |
| CC1=CCCC1NC(=O)Nc1ccc(Cl)c(S(=O)(=O)C(C)(C)F)c1O (stereo not shown) [Compound 105, 1-(4-chloro-3-((2-fluoropropan-2-yl)sulfonyl)-2-hydroxyphenyl)-3-(2-methylcyclopent-2-en-1-yl)urea] | ≤ 10 |  |
| CC1=CCCC1NC(=O)Nc1ccc(Cl)c(S(=O)(=O)C(C)(F)F)c1O (stereo not shown) [Compound 106, 1-(4-chloro-3-((1,1-difluoroethyl)sulfonyl)-2-hydroxyphenyl)-3-(2-methylcyclopent-2-en-1-yl)urea] | ≤ 1 |  |
| CC1=CCCC1NC(=O)Nc1ccc(Cl)c(S(=O)(=O)C2CCc3nccn3C2)c1O (stereo not shown) [Compound 108, 1-(4-chloro-2-hydroxy-3-((5,6,7,8-etrahydroimidazo [1,2-a]pyridin-6-yl)sulfonyl)phenyl)-3-(2-methylcyclopent-2-en-1-yl)urea, trifluoroacetic acid salt] | ≤ 10 |  |
| CC1=CCCC1NC(=O)Nc1ccc(Cl)c(S(=O)(=O)N2CC[C@@H](F)C2)c1O (stereo partly drawn) [Compound 113, 1-(4-chloro-3-(((R)-3-fluoropyrrolidin-1-yl)sulfonyl)-2-hydroxyphenyl)-3-(2-methylcyclopent-2-en-1-yl)urea] | ≤ 10 |  |
| CC1=CCCC1NC(=O)Nc1ccc(Cl)c(S(=O)(=O)N2CCC(F)(F)CC2)c1O (stereo not shown) [Compound 115, 1-(4-chloro-3-((4,4-difluoropiperidin-1-yl)sulfonyl)-2-hydroxyphenyl)-3-(2-methylcyclopent-2-en-1-yl)urea] | ≤ 10 |  |

Continued, in another order:

| IC50 [1] [nM] | SMILES | IC50 (pIC50 (CXCR2 Tango assay)) [nM] |
| --- | --- | --- |
| ≤ 10 | CC1=CCC[C@H]1NC(=O)Nc1ccc(Cl)c(S(=O)(=O)N2CC[C@@H](F)C2)c1O [Compound 87, 1-(4-chloro-3-(((R)-3-fluoropyrrolidin-1-yl)sulfonyl)-2-hydroxyphenyl)-3-((R)-2-methylcyclopent-2-en-1-yl)urea, trifluoroacetic acid salt] |  |
| ≤ 1 | CC1=CCC[C@H]1NC(=O)Nc1ccc(Cl)c(S(=O)(=O)N2CCC(F)(F)C2)c1O [Compound 88, (R)-1-(4-chloro-3-((3,3-difluoropyrrolidin-1-yl)sulfonyl)-2-hydroxyphenyl)-3-(2-methylcyclopent-2-en-1-yl)urea] |  |
| ≤ 1 | CC1=CCC[C@H]1NC(=O)Nc1ccc(Cl)c(S(=O)(=O)N2CCCCC2)c1O [Compound 91, (R)-1-(4-chloro-2-hydroxy-3-(piperidin-1-ylsulfonyl)phenyl)-3-(2-methylcyclopent-2-en-1-yl)urea trifluoroacetic acid salt] |  |
| ≤ 10 | CC1=CCCC1NC(=O)Nc1ccc(Cl)c(S(=O)(=O)C(C)(C)C)c1O (stereo not shown) [Compound 100, 1-(3-(tert-butylsulfonyl)-4-chloro-2-hydroxyphenyl)-3-(2-methylcyclopent-2-en-1-yl)urea] |  |
| ≤ 1 | CC1=CCCC1NC(=O)Nc1ccc(Cl)c(S(=O)(=O)C(C)(C)C(F)(F)F)c1O (stereo not shown) [Compound 101, 1-(4-chloro-2-hydroxy-3-((1,1,1-trifluoro-2-methylpropan-2-yl)sulfonyl)phenyl)-3-(2-methylcyclopent-2-en-1-yl)urea] |  |
| ≤ 10 | CC1=CCCC1NC(=O)Nc1ccc(Cl)c(S(=O)(=O)C(C)(C)C2CCOCC2)c1O (stereo not shown) [Compound 103, 1-(4-chloro-2-hydroxy-3-((2-(tetrahydro-2H-pyran-4-yl)propan-2-yl)sulfonyl)phenyl)-3-(2-methylcyclopent-2-en-1-yl)urea] |  |
| ≤ 10 | CC1=CCCC1NC(=O)Nc1ccc(Cl)c(S(=O)(=O)C2CCN3CCCC3C2)c1O (stereo not shown) [Compound 109, 1-(4-chloro-2-hydroxy-3-((octahydroindolizin-7-yl)sulfonyl)phenyl)-3-(2-methylcyclopent-2-en-1-yl)urea, trifluoroacetic acid salt] |  |
| ≤ 10 | CC1=CCCC1NC(=O)Nc1ccc(Cl)c(S(=O)(=O)N2CC(F)(F)C2)c1O (stereo not shown) [Compound 111, 1-(4-chloro-3-((3,3-difluoroazetidin-1-yl)sulfonyl)-2-hydroxyphenyl)-3-(2-methylcyclopent-2-en-1-yl)urea] |  |
